The target in experiment [1] is T1, Adrenergic receptor alpha-1 (Rattus norvegicus, UniProt P15823+P23944+P43140).
T1 sequence (P15823 whole entry): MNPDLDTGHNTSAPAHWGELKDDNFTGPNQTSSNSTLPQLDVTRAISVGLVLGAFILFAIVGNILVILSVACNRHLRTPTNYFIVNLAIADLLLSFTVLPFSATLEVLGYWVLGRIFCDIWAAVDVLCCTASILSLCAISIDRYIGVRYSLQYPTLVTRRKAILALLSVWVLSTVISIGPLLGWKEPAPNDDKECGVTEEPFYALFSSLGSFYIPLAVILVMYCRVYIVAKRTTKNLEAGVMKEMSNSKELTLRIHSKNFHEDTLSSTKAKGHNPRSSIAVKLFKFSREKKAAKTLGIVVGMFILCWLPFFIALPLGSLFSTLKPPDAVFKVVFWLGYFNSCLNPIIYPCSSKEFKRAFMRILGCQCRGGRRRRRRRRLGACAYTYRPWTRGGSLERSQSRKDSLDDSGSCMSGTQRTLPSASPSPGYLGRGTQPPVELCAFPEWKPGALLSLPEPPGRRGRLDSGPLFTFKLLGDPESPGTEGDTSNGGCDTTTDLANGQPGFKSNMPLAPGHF
T1 sequence (P23944 whole entry): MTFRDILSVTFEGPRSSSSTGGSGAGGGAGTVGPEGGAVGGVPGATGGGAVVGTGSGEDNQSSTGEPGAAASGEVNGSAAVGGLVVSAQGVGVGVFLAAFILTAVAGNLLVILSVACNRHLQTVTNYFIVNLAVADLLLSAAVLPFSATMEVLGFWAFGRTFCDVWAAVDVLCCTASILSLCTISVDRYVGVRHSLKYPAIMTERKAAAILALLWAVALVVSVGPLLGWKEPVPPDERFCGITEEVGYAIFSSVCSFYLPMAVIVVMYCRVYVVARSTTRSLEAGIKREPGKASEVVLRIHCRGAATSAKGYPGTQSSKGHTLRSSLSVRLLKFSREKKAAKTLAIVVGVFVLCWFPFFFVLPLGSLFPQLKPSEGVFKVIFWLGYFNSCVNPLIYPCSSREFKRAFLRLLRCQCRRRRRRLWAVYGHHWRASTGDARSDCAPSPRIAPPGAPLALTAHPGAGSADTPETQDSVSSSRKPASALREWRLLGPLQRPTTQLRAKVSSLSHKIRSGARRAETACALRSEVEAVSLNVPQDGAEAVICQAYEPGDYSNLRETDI
T1 sequence (P43140 whole entry): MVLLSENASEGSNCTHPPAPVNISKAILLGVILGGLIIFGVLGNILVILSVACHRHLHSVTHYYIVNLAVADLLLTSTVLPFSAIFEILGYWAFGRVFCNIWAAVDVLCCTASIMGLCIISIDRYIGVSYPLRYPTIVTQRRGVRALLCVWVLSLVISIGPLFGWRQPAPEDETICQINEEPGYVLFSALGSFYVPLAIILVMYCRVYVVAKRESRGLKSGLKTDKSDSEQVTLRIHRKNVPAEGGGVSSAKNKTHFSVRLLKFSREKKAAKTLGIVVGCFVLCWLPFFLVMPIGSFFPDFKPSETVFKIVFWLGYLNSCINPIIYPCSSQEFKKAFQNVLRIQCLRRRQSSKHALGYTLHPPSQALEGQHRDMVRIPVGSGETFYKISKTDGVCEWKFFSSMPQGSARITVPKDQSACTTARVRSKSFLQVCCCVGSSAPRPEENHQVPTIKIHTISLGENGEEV
Description: Alpha-1-adrenolytic activity was assessed from the ability to inhibit [3H]prazosin binding to rat cerebral cortex preparation. The format is tissue-based.

For another experiment, the species on record is Sus scrofa. Description: Calcium antagonistic activity was evaluated from the inhibition of CaCl2-induced contraction of depolarized pig coronary artery. The note with it: Sus scrofa, Coronary artery. It is filed as functional.
Experiment [2] has as its target T2, Adrenergic receptor alpha-2 (Rattus norvegicus, UniProt P22086+P19328+P22909).
T2 sequence (P22086 whole entry): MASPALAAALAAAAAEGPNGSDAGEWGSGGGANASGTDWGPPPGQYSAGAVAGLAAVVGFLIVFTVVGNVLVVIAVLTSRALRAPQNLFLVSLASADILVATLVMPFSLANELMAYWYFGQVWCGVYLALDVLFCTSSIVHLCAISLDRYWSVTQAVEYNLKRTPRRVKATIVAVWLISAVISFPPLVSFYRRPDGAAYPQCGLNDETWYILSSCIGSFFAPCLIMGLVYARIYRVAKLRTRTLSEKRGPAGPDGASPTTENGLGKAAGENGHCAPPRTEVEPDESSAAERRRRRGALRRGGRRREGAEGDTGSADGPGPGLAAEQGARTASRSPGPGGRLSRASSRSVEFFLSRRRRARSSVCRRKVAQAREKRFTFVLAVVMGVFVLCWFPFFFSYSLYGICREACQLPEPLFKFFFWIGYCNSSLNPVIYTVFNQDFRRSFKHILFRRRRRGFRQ
T2 sequence (P19328 whole entry): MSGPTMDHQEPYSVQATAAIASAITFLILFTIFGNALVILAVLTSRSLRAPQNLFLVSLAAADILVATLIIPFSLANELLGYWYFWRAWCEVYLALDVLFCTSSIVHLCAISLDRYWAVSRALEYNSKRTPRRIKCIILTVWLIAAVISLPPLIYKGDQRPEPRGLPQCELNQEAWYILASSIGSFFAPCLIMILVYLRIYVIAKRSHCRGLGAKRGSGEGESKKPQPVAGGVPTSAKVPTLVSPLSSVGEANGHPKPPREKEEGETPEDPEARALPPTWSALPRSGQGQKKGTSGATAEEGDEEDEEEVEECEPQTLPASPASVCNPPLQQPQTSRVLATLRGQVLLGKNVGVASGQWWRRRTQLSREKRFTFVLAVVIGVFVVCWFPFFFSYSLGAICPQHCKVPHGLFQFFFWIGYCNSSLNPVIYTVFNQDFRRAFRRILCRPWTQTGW
T2 sequence (P22909 whole entry): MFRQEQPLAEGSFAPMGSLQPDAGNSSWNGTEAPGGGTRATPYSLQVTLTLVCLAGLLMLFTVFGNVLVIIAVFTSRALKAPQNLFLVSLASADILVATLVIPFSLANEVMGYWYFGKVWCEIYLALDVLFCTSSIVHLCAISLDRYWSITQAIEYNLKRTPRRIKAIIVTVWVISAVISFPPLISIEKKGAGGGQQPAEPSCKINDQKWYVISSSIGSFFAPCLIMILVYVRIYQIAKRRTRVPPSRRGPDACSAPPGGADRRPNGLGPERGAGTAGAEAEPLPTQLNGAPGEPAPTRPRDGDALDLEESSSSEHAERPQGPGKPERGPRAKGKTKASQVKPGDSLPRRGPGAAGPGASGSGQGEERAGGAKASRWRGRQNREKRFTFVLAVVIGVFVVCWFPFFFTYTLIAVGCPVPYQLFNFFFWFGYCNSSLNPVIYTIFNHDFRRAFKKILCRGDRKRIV
Kind of experiment: Alpha-2-adrenolytic activity was assessed from the ability to inhibit [3H]yohimbine binding to rat cerebral cortex preparation. The format is tissue-based.

The species entered for a further experiment is Rattus norvegicus. Description: Calcium antagonistic activity was evaluated by in vitro inhibition of [3H]nitrendipine binding on rat cerebral cortex. It is filed as functional.
Experiment [3] addresses T1, Adrenergic receptor alpha-1. Description: Alpha-1-adrenolytic activity was assessed in vitro from the ability to inhibit norepinephrine-induced contraction of rat aorta preparation.

By IC50 is commonly meant the point on the concentration scale where inhibition reaches its midpoint.

Turning to `CO/C(O)=C1\C(C)=NC(C)=C(C(=O)OCCN(C)C[C@@H]2COc3ccccc3O2)[C@H]1c1cccc([N+](=O)[O-])c1.Cl`, the IC50 in experiment [1] is 2 µM; in the experiment listed under Sus scrofa, 2.5 nM; in experiment [2], 19 µM; in the experiment filed under Rattus norvegicus, 1 nM; in experiment [3], >> 0.00001 M.

Take `CC1=NC(C)=C(C(=O)OCCN(C)CC2COc3ccccc3O2)C(c2cccc([N+](=O)[O-])c2)/C1=C(\O)OC(C)C.Cl` (centres undefined): the IC50 is 3.5 µM in experiment [1]; 4 nM in the experiment listed under Sus scrofa; 0.83 µM in experiment [2]; 0.06 nM in the experiment listed under Rattus norvegicus; >> 0.00003 M in experiment [3].

`COC(=O)C1=C(C)NC(C)=C(C(=O)OCCN(C)C[C@H]2COc3ccccc3O2)[C@@H]1c1cccc([N+](=O)[O-])c1.Cl` (racemic): the IC50 in experiment [1] came out at 1.9 µM; in experiment [2] it was 0.21 µM; in experiment [3] it was 0.00003 M.

For `COC(=O)C1=C(C)NC(C)=C(C(=O)OCCN(C)Cc2ccccc2)C1c1cccc([N+](=O)[O-])c1` (centres undefined) [NICARDIPINE], the IC50 in experiment [1] was 3.6 µM; in the experiment filed under Sus scrofa it was 0.3 nM; in experiment [2], 1.4 µM; in the experiment listed under Rattus norvegicus, 0.026 nM; in experiment [3] it was more than 0.00001 M.

As for `COc1cc2nc(N3CCN(C(=O)c4ccco4)CC3)nc(N)c2cc1OC` [PRAZOSIN], the IC50 in the experiment filed under Rattus norvegicus was 3000 nM.

These data come from ChEMBL document CHEMBL1124620, “New 1,4-dihydropyridine derivatives combining calcium antagonism and alpha-adrenolytic properties” (J Med Chem, 1989).
